From patent US7253318B2, “Benzyloxy derivatives as MAOB inhibitors” (Hoffman-La Roche Inc., priority 2004, dated 2007)

Experiments:
[1] = target: T1, human MAO-B (Homo sapiens, UniProt P27338); assay: MAO-B enzymatic activity, spectrophotometric assay (Amplex Red, tyramine substrate) on membranes of transfected EBNA cells; assay type: biochemical; conditions: membranes of EBNA cells transfected with human MAO-B cDNA, 30 min preincubation at 37° C., pH 7.4
T1 construct: expressed in transfected cells; host or cells: EBNA cells (transient transfection), membrane preparation
T1 sequence (P27338 1-520): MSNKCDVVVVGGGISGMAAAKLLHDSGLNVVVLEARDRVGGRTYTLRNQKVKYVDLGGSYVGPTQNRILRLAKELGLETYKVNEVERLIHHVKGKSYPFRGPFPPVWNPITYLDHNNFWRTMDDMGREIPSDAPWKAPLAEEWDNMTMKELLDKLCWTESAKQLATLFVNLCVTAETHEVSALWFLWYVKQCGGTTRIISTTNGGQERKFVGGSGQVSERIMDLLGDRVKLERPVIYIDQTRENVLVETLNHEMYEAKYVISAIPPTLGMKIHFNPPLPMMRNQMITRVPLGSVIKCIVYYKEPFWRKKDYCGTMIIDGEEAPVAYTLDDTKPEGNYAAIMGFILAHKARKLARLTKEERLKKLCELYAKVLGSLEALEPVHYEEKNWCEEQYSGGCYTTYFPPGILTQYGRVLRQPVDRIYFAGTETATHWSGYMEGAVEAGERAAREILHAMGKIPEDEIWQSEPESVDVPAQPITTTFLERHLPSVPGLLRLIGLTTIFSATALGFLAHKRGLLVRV
Protocol: (§1) The cDNA's encoding human MAO-A and MAO-B were transiently transfected into EBNA cells using the procedure described by Schlaeger and Christensen [Cytotechnology 15:1-13 (1998)]. After transfection, cells were homogenised by means of a Polytron homogenizer in 20 mM Tris HCl buffer, pH 8.0, containing 0.5 mM EGTA and 0.5 mM phenylmethanesulfonyl fluoride. Cell membranes were obtained by centrifugation at 45,000×g and, after two rinsing steps with 20 mM Tris HCl buffer, pH 8.0, containing 0.5 mM EGTA, membranes were eventually re-suspended in the above buffer and aliquots stored at −80° C. until use.
(§2) MAO-A and MAO-B enzymatic activity was assayed in 96-well-plates using a spectrophotometric assay adapted from the method described by Zhou and Panchuk-Voloshina [Analytical Biochemistry 253:169-174 (1997)]. Briefly, membrane aliquots were incubated in 0.1 M potassium phosphate buffer, pH 7.4, for 30 min at 37° C. with or without various concentrations of the compounds. After this period, the enzymatic reaction was started by the addition of the MAO substrate tyramine together with 1 U/ml horse-radish peroxidase (Roche Biochemicals) and 80 μM N-acetyl-3,7,-dihydroxyphenoxazine (Amplex Red, Molecular Probes). The samples were further incubated for 30 min at 37° C. in a final volume of 200 μl and absorbance was then determined at a wavelength of 570 nm using a SpectraMax plate reader (Molecular Devices). Background (non-specific) absorbance was determined in the presence of 10 μM clorgyline for MAO-A or 10 μM L-deprenyl for MAO-B.
(§3) IC50 values were determined from inhibition curves obtained using nine inhibitor concentrations in duplicate, by fitting data to a four parameter logistic equation using a computer program.

[2] = target: T2, human MAO-A (Homo sapiens, UniProt P21397); assay: MAO-A enzymatic activity, spectrophotometric assay (Amplex Red, tyramine substrate) on membranes of transfected EBNA cells; assay type: biochemical; conditions: membranes of EBNA cells transfected with human MAO-A cDNA, 30 min preincubation at 37° C., pH 7.4
T2 construct: expressed in transfected cells; host or cells: EBNA cells (transient transfection), membrane preparation
T2 sequence (P21397 1-527): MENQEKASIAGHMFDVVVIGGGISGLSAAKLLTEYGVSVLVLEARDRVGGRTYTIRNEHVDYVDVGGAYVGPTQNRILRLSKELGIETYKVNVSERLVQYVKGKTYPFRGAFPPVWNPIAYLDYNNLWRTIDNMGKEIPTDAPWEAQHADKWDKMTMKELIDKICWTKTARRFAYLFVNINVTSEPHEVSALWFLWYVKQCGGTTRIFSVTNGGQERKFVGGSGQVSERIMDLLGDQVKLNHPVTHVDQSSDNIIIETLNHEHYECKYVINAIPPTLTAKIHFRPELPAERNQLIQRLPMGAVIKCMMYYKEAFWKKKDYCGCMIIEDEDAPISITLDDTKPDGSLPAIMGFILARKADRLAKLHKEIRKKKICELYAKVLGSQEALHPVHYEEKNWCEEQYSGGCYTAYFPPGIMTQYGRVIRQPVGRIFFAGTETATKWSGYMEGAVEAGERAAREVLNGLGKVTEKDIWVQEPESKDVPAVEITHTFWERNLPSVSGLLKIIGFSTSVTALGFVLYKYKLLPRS
Protocol: as §1, §2, §3

Row | IC50 [1] | IC50 [2] | Structure (SMILES)
1 | 0.031 µM | > 10 µM | CNC(=O)C(C)Oc1ccc(OCc2cccc(F)c2)cc1 (racemic) [Example 11, (RS)-2-[4-(3-Fluoro-benzyloxy)-phenoxy]-N-methyl-propionamide]
2 | 0.015 µM | > 10 µM | CNC(=O)C(C)Oc1ccc(OCc2cccc(Cl)c2)cc1 (racemic) [Example 12, (RS)-2-[4-(3-Chloro-benzyloxy)-phenoxy]-N-methyl-propionamide]
3 | 0.031 µM | > 10 µM | CNC(=O)C(C)Oc1ccc(OCc2ccc(C#N)cc2)cc1 (racemic) [Example 14, (RS)-2-[4-(4-Cyano-benzyloxy)-phenoxy]-N-methyl-propionamide]
4 | 0.056 µM | > 10 µM | CCC(Oc1ccc(OCc2cccc(F)c2)cc1)C(=O)NC (racemic) [Example 17, (RS)-2-[4-(3-Fluoro-benzyloxy)-phenoxy]-N-methyl-butyramide]
5 | 0.028 µM | > 10 µM | CCC(Oc1ccc(OCc2cccc(Cl)c2)cc1)C(=O)NC (racemic) [Example 18, (RS)-2-[4-(3-Chloro-benzyloxy)-phenoxy]-N-methyl-butyramide]
6 | 0.074 µM | > 10 µM | CCC(Oc1ccc(OCc2ccc(C#N)cc2)cc1)C(=O)NC (racemic) [Example 19, (RS)-2-[4-(4-Cyano-benzyloxy)-phenoxy]-N-methyl-butyramide]
7 | 0.009 µM | > 10 µM | CNC(=O)C(C)Oc1ccc(OCc2cccc(Cl)c2)cc1 (single isomer, unassigned) [Example 13, (S or R)-2-[4-(3-Chloro-benzyloxy)-phenoxy]-N-methyl-propionamide]
8 | 0.052 µM | > 10 µM | CNC(=O)COc1ccc(OCc2ccccc2)cc1 [Example 2, 2-(4-Benzyloxy-phenoxy)-N-methyl-acetamide]
9 | 0.028 µM | 2.86 µM | CNC(=O)COc1ccc(OCc2ccc(C#N)cc2)cc1 [Example 3, 2-[4-(4-Cyano-benzyloxy)-phenoxy]-N-methyl-acetamide]
10 | 0.012 µM | 2.44 µM | CNC(=O)COc1ccc(OCc2ccc(Cl)cc2)cc1 [Example 4, 2-[4-(4-Chloro-benzyloxy)-phenoxy]-N-methyl-acetamide]
11 | 0.081 µM | > 9 µM | CNC(=O)COc1ccc(OCc2ccccc2F)cc1 [Example 5, 2-[4-(2-Fluoro-benzyloxy)-phenoxy]-N-methyl-acetamide]
12 | 0.021 µM | > 10 µM | CNC(=O)COc1ccc(OCc2cccc(F)c2)cc1 [Example 6, 2-[4-(3-Fluoro-benzyloxy)-phenoxy]-N-methyl-acetamide]
13 | 0.009 µM | 5.4 µM | CNC(=O)COc1ccc(OCc2ccc(F)cc2)cc1 [Example 7, 2-[4-(4-Fluoro-benzyloxy)-phenoxy]-N-methyl-acetamide]
14 | 0.044 µM | > 10 µM | NC(=O)CCOc1ccc(OCc2cccc(F)c2)cc1 [Example 23, 3-[4-(3-Fluoro-benzyloxy)-phenoxy]-propionamide]
15 | 0.068 µM | > 10 µM | NC(=O)OCCc1ccc(OCc2cccc(F)c2)cc1 [Example 24, Carbamic acid 2-[4-(3-fluoro-benzyloxy)-phenyl]-ethyl ester]
16 | 0.051 µM | > 10 µM | NC(=O)COCc1ccc(OCc2cccc(F)c2)cc1 [Example 27, 2-[4-(3-Fluoro-benzyloxy)-benzyloxy]-acetamide]

Row | Structure (SMILES) | IC50 [1] | IC50 [2]
17 | CNC(=O)OCc1ccc(OCc2cccc(F)c2)cc1 [Example 26, Methyl-carbamic acid 4-(3-fluoro-benzyloxy)-benzyl ester] | 0.089 µM | > 10 µM
